Assays:
S. pneumoniae D39V = assay: fitness (endpoint OD595 vs no drug) (fraction); higher = more growth
Outline: (§1)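 Fitness is computed from the optical density at which cultures reach stationary phase, divided by the robust mean of no-drug control wells. Any value above 1 is set to 1. Cultures started at OD595 0.01 in 384-well plates with TSB, LB Lennox or CY at 37 °C, and OD595 was read every 30 min for 14 h against a first-reading background.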

B. subtilis 168 = assay: as above
Outline: as §1
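Note: OD595 on entry to stationary phase over no-drug wells; at most 1.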

CC(=O)Oc1ccccc1C(=O)O [Acetylsalicylic acid] + O=C1CN(/N=C/c2ccc([N+](=O)[O-])o2)C(=O)N1 [Nitrofurantoin]
fitness, S. pneumoniae D39V
Conditions	partner 1.285 µg/mL	partner 2 µg/mL	partner 2.57 µg/mL	partner 4 µg/mL	partner 8 µg/mL
first compound 250 µg/mL	0.979	0.9	0.973	0.91	0.813
first compound 500 µg/mL	0.974	0.835	0.947	0.786	0.742
first compound 1000 µg/mL	0.931	0.513	0.93	0.446	0.467

S. pneumoniae D39V, partner 5.14 µg/mL, one replicate
Conditions	fitness
first compound 250 µg/mL	0.93
first compound 500 µg/mL	0.888
first compound 1000 µg/mL	0.813

CN(C)[C@@H]1C(O)=C(C(N)=O)C(=O)[C@@]2(O)C(O)=C3C(=O)c4c(O)ccc(Cl)c4[C@@](C)(O)[C@H]3C[C@@H]12 [Chlortetracycline] + C[C@@H](O)[C@H]1C(=O)N2C(C(=O)O)=C(SCCNC=N)C[C@H]12 [Imipenem]
fitness, S. pneumoniae D39V
Conditions	first compound 0.012 µg/mL	first compound 0.024 µg/mL	first compound 0.048 µg/mL	first compound 0.375 µg/mL	first compound 0.75 µg/mL	first compound 1.5 µg/mL
partner 0.005 µg/mL	–	–	–	0.0486	0.0409	0.0284
partner 0.0065 µg/mL	0.894	0.799	0.686	–	–	–
partner 0.01 µg/mL	–	–	–	0.0501	0.0583	0.0373
partner 0.013 µg/mL	0.863	0.865	0.837	–	–	–
partner 0.02 µg/mL	–	–	–	0.0339	0.065	0.065
partner 0.026 µg/mL	0.724	0.761	0.724	–	–	–

CC(=O)Oc1ccccc1C(=O)O [Acetylsalicylic acid] + C[C@H]1COc2c(N3CCN(C)CC3)c(F)cc3c(=O)c(C(=O)O)cn1c23 [Levofloxacin]
fitness, S. pneumoniae D39V
Conditions	partner 0.1725 µg/mL	partner 0.2 µg/mL	partner 0.345 µg/mL	partner 0.4 µg/mL	partner 0.69 µg/mL	partner 0.8 µg/mL
first compound 250 µg/mL	0.992	0.92	0.954	0.868	0.671	0.673
first compound 500 µg/mL	≥ 1	0.929	0.9	0.898	0.692	0.653
first compound 1000 µg/mL	0.95	0.881	0.938	0.734	0.716	0.513

CC(=O)Oc1ccccc1C(=O)O [Acetylsalicylic acid] + CC1=C(C(=O)O)N2C(=O)[C@@H](NC(=O)[C@H](N)c3ccccc3)[C@H]2SC1 [Cephalexin]
fitness, S. pneumoniae D39V, one replicate
Conditions	first compound 250 µg/mL	first compound 500 µg/mL	first compound 1000 µg/mL
partner 0.125 µg/mL	0.955	0.996	0.935
partner 0.25 µg/mL	0.931	0.961	0.913
partner 0.5 µg/mL	0.923	0.932	0.92

fitness, S. pneumoniae D39V
Conditions	first compound 250 µg/mL	first compound 500 µg/mL	first compound 1000 µg/mL
partner 1 µg/mL	0.902	0.89	0.727
partner 2 µg/mL	0.611	–	0.391
partner 4 µg/mL	0.0549	0.0473	0.0319

C[C@H]1c2cccc(O)c2C(=O)C2=C(O)[C@]3(O)C(=O)C(C(N)=O)=C(O)[C@@H](N(C)C)[C@@H]3[C@@H](O)[C@@H]21 [Doxycycline] + CO[C@@]12[C@H](COC(N)=O)C3=C(C(=O)C(C)=C(N)C3=O)N1C[C@@H]1N[C@@H]12 [Mitomycin C]
fitness, S. pneumoniae D39V, one replicate
Conditions	first compound 0.003875 µg/mL	first compound 0.00775 µg/mL	first compound 0.031 µg/mL	first compound 0.062 µg/mL
partner 0.002 µg/mL	0.897	0.823	0.833	0.64
partner 0.004 µg/mL	0.848	0.828	0.783	0.616
partner 0.008 µg/mL	0.615	0.622	0.622	0.456

fitness, S. pneumoniae D39V
Conditions	partner 0.001075 µg/mL	partner 0.002 µg/mL	partner 0.00215 µg/mL	partner 0.004 µg/mL	partner 0.0043 µg/mL	partner 0.008 µg/mL
first compound 0.0155 µg/mL	0.863	0.82	0.819	0.792	0.717	0.699
first compound 0.031 µg/mL	0.816	–	0.814	–	0.649	–
first compound 0.062 µg/mL	0.743	–	0.771	–	0.63	–

CN(C)[C@@H]1C(O)=C(C(N)=O)C(=O)[C@@]2(O)C(O)=C3C(=O)c4c(O)ccc(Cl)c4[C@@](C)(O)[C@H]3C[C@@H]12 [Chlortetracycline] + C/C(=C\C(=O)OCCCCCCCCC(=O)O)C[C@@H]1OC[C@H](C[C@@H]2O[C@H]2[C@@H](C)[C@H](C)O)[C@@H](O)[C@H]1O [Pseudomonic acid]
fitness, S. pneumoniae D39V
Conditions	first compound 0.012 µg/mL	first compound 0.024 µg/mL	first compound 0.048 µg/mL	first compound 0.375 µg/mL	first compound 0.75 µg/mL	first compound 1.5 µg/mL
partner 0.03 µg/mL	0.884	0.853	0.829	0.0434	0.0614	0.0477
partner 0.06 µg/mL	0.78	0.75	0.779	0.0787	0.0801	0.0542
partner 0.12 µg/mL	0.57	0.586	0.62	0.0891	0.0486	0.0665

CC(=O)Oc1ccccc1C(=O)O [Acetylsalicylic acid] + Clc1ccc(COC(Cn2ccnc2)c2ccc(Cl)cc2Cl)c(Cl)c1 [Miconazole]
fitness, S. pneumoniae D39V
Conditions	partner 1.073 µg/mL	partner 1.25 µg/mL	partner 2.145 µg/mL	partner 2.5 µg/mL	partner 4.29 µg/mL	partner 5 µg/mL
first compound 250 µg/mL	≥ 1	0.902	0.943	0.863	0.9	0.937
first compound 500 µg/mL	≥ 1	0.816	0.918	0.772	0.858	0.844
first compound 1000 µg/mL	≥ 1	0.643	0.957	0.589	0.875	0.656

CC(=O)Oc1ccccc1C(=O)O [Acetylsalicylic acid] + CO[C@H]1/C=C/O[C@@]2(C)Oc3c(C)c(O)c4c(O)c(c(/C=N/N5CCN(C)CC5)c(O)c4c3C2=O)NC(=O)/C(C)=C\C=C\[C@H](C)[C@H](O)[C@@H](C)[C@@H](O)[C@@H](C)[C@H](OC(C)=O)[C@@H]1C [Rifampicin]
fitness, S. pneumoniae D39V
Conditions	first compound 250 µg/mL	first compound 500 µg/mL	first compound 1000 µg/mL
partner 0.025 µg/mL	0.932	0.913	0.81
partner 0.05 µg/mL	–	0.899	0.668
partner 0.1 µg/mL	0.476	0.37	–

S. pneumoniae D39V, partner 0.2 µg/mL, one replicate
Conditions	fitness
first compound 250 µg/mL	0
first compound 500 µg/mL	0
first compound 1000 µg/mL	0

CN(C)[C@@H]1C(O)=C(C(N)=O)C(=O)[C@@]2(O)C(O)=C3C(=O)c4c(O)ccc(Cl)c4[C@@](C)(O)[C@H]3C[C@@H]12 [Chlortetracycline] + CO/N=C(\C(=O)N[C@@H]1C(=O)N2C(C(=O)O)=C(COC(N)=O)CS[C@H]12)c1ccco1 [Cefuroxime]
fitness, B. subtilis 168
Conditions	first compound 0.0475 µg/mL	first compound 0.095 µg/mL	first compound 0.19 µg/mL
partner 0.04875 µg/mL	0.667	0.593	0.162
partner 0.0975 µg/mL	0.601	0.519	0.135
partner 0.195 µg/mL	0.429	0.312	0.0926

fitness, B. subtilis 168, one replicate
Conditions	partner 0.39 µg/mL	partner 0.78 µg/mL	partner 1.562 µg/mL	partner 3.125 µg/mL	partner 6.25 µg/mL
first compound 0.0475 µg/mL	0.346	0.362	0.303	0.275	0.21
first compound 0.095 µg/mL	0.207	0.145	0.103	0.0825	0.0597
first compound 0.19 µg/mL	0.0621	0.0481	0.038	0.0341	0.0237

CN(C)[C@@H]1C(O)=C(C(N)=O)C(=O)[C@@]2(O)C(O)=C3C(=O)c4c(O)ccc(Cl)c4[C@@](C)(O)[C@H]3C[C@@H]12 [Chlortetracycline] + Clc1ccc(COC(Cn2ccnc2)c2ccc(Cl)cc2Cl)c(Cl)c1 [Miconazole]
fitness, S. pneumoniae D39V
Conditions	first compound 0.012 µg/mL	first compound 0.024 µg/mL	first compound 0.048 µg/mL	first compound 0.375 µg/mL	first compound 0.75 µg/mL	first compound 1.5 µg/mL
partner 1.073 µg/mL	0.995	0.926	0.907	–	–	–
partner 1.25 µg/mL	–	–	–	0.0819	0.0494	0.0765
partner 2.145 µg/mL	0.971	0.935	0.879	–	–	–
partner 2.5 µg/mL	–	–	–	0.104	0.0646	0.0895
partner 4.29 µg/mL	0.913	0.883	0.793	–	–	–
partner 5 µg/mL	–	–	–	0.0525	0.0422	0.0647

CC(=O)Oc1ccccc1C(=O)O [Acetylsalicylic acid] + CCC(C)C1C(=O)NC(=C)C(=O)NC(C(=O)NC(CSCC(C(=O)N1)NC(=O)/C(=C/C)/NC(=O)C(C(C)CC)N)C(=O)NC2C(SCC(NC(=O)CNC(=O)C3CCCN3C2=O)C(=O)NC(CCCCN)C(=O)NC4C(SCC(NC(=O)CNC(=O)C(NC(=O)C(NC(=O)C(NC(=O)CNC4=O)C)CC(C)C)CCSC)C(=O)NC(CC(=O)N)C(=O)NC(CCSC)C(=O)NC(CCCCN)C(=O)NC5C(SCC6C(=O)NC(C(=O)NC(CSC(C(C(=O)N6)NC(=O)C(NC5=O)C)C)C(=O)NC(CO)C(=O)NC(C(C)CC)C(=O)NC(CC7=CN=CN7)C(=O)NC(C(C)C)C(=O)NC(=C)C(=O)NC(CCCCN)C(=O)O)CC8=CN=CN8)C)C)C)CC(C)C [Nisin]
fitness, S. pneumoniae D39V, main component drawn
Conditions	partner 0.4275 µg/mL	partner 0.855 µg/mL	partner 1.6 µg/mL	partner 1.71 µg/mL	partner 3.2 µg/mL	partner 6.4 µg/mL
first compound 250 µg/mL	0.994	0.711	0.0198	0.0841	0.0317	0.0271
first compound 500 µg/mL	0.974	0.715	0.0324	0.114	0.0227	0.0184
first compound 1000 µg/mL	–	0.526	0.0339	0.0989	0.0138	0.0153

CC(=O)Oc1ccccc1C(=O)O [Acetylsalicylic acid] + O=C(O)[C@H]1/C(=C/CO)O[C@@H]2CC(=O)N21 [Clavulanic acid]
fitness, S. pneumoniae D39V
Conditions	first compound 250 µg/mL	first compound 500 µg/mL	first compound 1000 µg/mL
partner 0.5 µg/mL	0.954	0.967	0.696
partner 1 µg/mL	0.902	0.902	0.696
partner 2 µg/mL	0.884	0.819	0.596

Reference: the supplement of paper PMC10627819
